Measurements: patent US20090286797A1, “Novel Quinoxaline Derivatives and Their Medical Use” (priority 2005, published 2009)

Target: T1, human glutamate receptor GluR1-flip (Homo sapiens, UniProt P42261)
T1 construct: expressed in transfected cells; host or cells: Chinese Hamster Ovary (CHO) cells
Assay: Whole cell patch clamp on CHO cells expressing human GluR1-flip; glutamate-induced current desensitization
Type: cell-based
Settings: 1 mM test compound co-applied with 10 mM L-glutamate after 30 seconds pre-incubation, hGluR1(i), whole cell voltage clamp
Description: In this experiment we investigated the influence of the test compounds on the membrane currents when determined electrophysiologically on Chinese Hamster Ovary (CHO) cells capable of expressing the human glutamate receptor GluR1-flip, obtained essentially as described by Fletcher E J & Lodge D, Pharmacol. Ther. 1996 70 (1) 65-89, the current through the channels being recorded using patch clamp technique in whole cell voltage clamp mode.
Current responses were induced by applying L-glutamate at a saturating concentration of 10 mM, and the modulatory effect of the test compound was evaluated by co-applying the test compound and L-glutamate upon a 30 seconds pre-incubation period, and comparing with […].

T1 sequence (P42261 19-906 isoform P42261-2 limits assumed): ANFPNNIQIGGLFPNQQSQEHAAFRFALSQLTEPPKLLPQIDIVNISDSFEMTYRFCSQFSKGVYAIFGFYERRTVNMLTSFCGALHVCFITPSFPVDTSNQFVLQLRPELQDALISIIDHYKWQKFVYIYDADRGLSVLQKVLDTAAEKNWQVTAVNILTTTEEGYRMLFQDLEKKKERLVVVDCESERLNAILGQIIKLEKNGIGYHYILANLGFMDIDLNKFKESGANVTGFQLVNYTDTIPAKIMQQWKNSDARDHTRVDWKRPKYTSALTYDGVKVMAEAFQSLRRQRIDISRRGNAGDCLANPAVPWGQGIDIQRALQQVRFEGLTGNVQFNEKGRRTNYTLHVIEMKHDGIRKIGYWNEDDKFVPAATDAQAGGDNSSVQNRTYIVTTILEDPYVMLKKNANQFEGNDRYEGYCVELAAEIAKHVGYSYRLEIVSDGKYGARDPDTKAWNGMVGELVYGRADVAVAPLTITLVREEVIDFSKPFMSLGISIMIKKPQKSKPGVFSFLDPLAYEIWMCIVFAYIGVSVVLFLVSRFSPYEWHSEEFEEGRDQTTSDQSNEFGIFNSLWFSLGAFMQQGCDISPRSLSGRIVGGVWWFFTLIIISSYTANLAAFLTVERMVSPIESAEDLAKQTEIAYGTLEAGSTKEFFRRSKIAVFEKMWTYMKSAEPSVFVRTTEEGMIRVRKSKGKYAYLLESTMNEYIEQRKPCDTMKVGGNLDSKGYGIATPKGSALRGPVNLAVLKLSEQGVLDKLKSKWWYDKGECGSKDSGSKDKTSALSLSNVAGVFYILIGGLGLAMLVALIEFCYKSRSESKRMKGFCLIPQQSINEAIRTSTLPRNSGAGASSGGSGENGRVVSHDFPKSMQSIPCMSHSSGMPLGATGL

Compound | degree of desensitization
CC1CCCN(C(=O)c2ccc3nccnc3c2)C1 (racemic) [Compound A4, (±)-(3-Methyl-piperidin-1-yl)-guinoxalin-6-yl-methanone] | 95.2+/−0.2%
O=C(c1ccc2nccnc2c1)N1CCCCC1 [Reference compound, Piperidin-1-yl-quinoxalin-6-yl-methanone] | 98.0+/−0.8%
